The text below walks through data of patent US9029097B2, “Biosensors for monitoring receptor-mediated G-protein activation” (Universite de Montreal, priority 2005, dated 2015).

Assay [1] deals with T1, β2-adrenergic receptor (β2AR) (Homo sapiens, UniProt P07550).
T1 construct: expressed in transfected cells; host or cells: HEK293T (transient, calcium phosphate)
The assay can be described thus: BRET in membrane preparations from HEK293T cells co-expressing β2AR-Rluc and GFP10-Gβ1 or GFP10-Gγ2. The format is biochemical. The settings on record: membranes. On the technique in general: BRET reads energy transfer from a luciferase to a nearby fluorophore.
Protocol: Treatments: Iso, 10 μM; Feno, 10 μM; ICI, 100 μM; GTPγS, 200 μM. […] Rluc-tagged receptors and G protein constructs were transiently co-transfected in HEK293T cells. […] Forty-eight hours post-transfection, cells were washed twice with PBS, detached with PBS-5 mM EDTA and resuspended in PBS-0.1% glucose at RT. […] DeepBlueCTM coelenterazine (PerkinElmer) was added at a final concentration of 5 μM, and readings (except for the kinetic studies; see below) were collected using a modified top-count apparatus (TopCount.NXTM, Packard Bioscience) that allows the sequential integration of the signals detected in the 370-450 nm and 500-530 nm windows using filters with the appropriate band pass (Chroma). […] The net BRET values were obtained by subtracting the BRET background signal detected when the Rluc-tagged construct was expressed alone from BRET signals detected in cells coexpressing both Rluc- and GFP10-tagged constructs. […] The expression level of each protein was determined by direct measurement of total fluorescence and luminescence on aliquots of the transfected cells. […] To avoid variations in the BRET signal that could result from fluctuations in the relative expression levels of the energy donor and acceptor, transfection conditions were designed so as to maintain a constant GFP10/Rluc expression ratio in each experimental set.

The next assay concerns the target T2, α2AAR (Homo sapiens, UniProt P08913).
T2 construct: expressed in transfected cells; host or cells: HEK293T
T2 sequence (P08913 1-465): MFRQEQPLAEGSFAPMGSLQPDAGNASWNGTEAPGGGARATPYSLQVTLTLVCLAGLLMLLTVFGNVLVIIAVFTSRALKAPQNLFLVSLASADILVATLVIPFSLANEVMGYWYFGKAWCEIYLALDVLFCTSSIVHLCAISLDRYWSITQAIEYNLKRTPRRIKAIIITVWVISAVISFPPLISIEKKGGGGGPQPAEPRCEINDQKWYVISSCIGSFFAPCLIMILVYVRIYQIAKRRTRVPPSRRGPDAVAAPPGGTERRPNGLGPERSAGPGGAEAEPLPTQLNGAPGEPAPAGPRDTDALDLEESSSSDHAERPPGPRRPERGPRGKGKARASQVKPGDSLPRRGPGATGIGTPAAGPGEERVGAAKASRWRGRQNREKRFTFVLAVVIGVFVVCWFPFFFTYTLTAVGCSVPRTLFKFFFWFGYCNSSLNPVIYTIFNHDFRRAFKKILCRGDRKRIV
The assay can be described thus: BRET between Gαi1-Rluc and GFP10-Gγ2 in the presence of α2AAR (Gα/Gβγ interaction). The format is cell-based.

For assay [2], the target named is T3, human α2A-adrenergic receptor (α2AAR) (Homo sapiens, UniProt P08913).
T3 construct: expressed in transfected cells; host or cells: HEK293T (transient)
T3 sequence (P08913 1-465): T2 sequence (P08913 1-465)
The assay can be described thus: BRET between α2AAR and tagged G protein subunits (Gβ1, Gγ2, Gαi1-91Rluc, Gαi1-122Rluc) in living HEK293T cells. Format: cell-based. The conditions noted are these: for effect of pre-treatment on agonist-promoted changes in BRET between α2AAR and G protein subunits: pertussis toxin 16 h at 37° C., UK14,304, FIG. 21.
Protocol: Rluc-tagged receptors and G protein constructs were transiently co-transfected in HEK293T cells. […] For the experiment using α2AAR-Rluc (FIG. 4f), the G protein heterotrimer was complimented with the most specific Gαi2. Forty-eight hours post-transfection, cells were washed twice with PBS, detached with PBS-5 mM EDTA and resuspended in PBS-0.1% glucose at RT. Cells (50 μg of proteins per well) were then distributed in a 96-well microplate (white Optiplate, PerkinElmer) and incubated in the presence or absence of different ligands for 1 min except in the case of the kinetic studies where the times are indicated. DeepBlueC™ coelenterazine (PerkinElmer) was added at a final concentration of 5 μM, and readings (except for the kinetic studies; see below) were collected using a modified top-count apparatus (TopCount.NX™, Packard Bioscience) that allows the sequential integration of the signals detected in the 370-450 nm and 500-530 nm windows using filters with the appropriate band pass (Chroma). The BRET signal was determined by calculating the ratio of the light emitted by GFP10 (500-530 nm) over the light emitted by the Rluc (370-450 nm). The net BRET values were obtained by subtracting the BRET background signal detected when the Rluc-tagged construct was expressed alone from BRET signals detected in cells coexpressing both Rluc- and GFP10-tagged constructs. […] The expression level of each protein was determined by direct measurement of total fluorescence and luminescence on aliquots of the transfected cells. The GFP10 total fluorescence was measured using a FluoroCount (PerkinElmer) with an excitation filter at 400 nm, an emission at 510 nm, and the following parameters: gain 1; PMT 1100 V; time 1.0 s. After fluorescence measurement, the same cells were incubated for 8 min with Coelenterazine h (Molecular Probes) at a final concentration of 5 μM and the total luminescence of cells was measured using a LumiCount (PerkinElmer Life Sciences) with the following parameters: gain 1; PMT 900 V; time 0.5 s. […] To avoid variations in the BRET signal that could result from fluctuations in the relative expression levels of the energy donor and acceptor, transfection conditions were designed so as to maintain a constant GFP10/Rluc expression ratio in each experimental set.
For kinetic analysis of receptor/Gαβγ interactions, DeepBlueC™ or Coelenterazine h luciferase substrate was added prior to the injection of the different ligands using the Mithras LB 940 apparatus (Berthold) and MicroWin2000 software. Readings were then collected at 0.05 or 0.1 sec intervals. Injection of the different ligands was included with in the kinetic program to allow a baseline recording followed by real-time recording of the BRET changes. The BRET signals were determined for each time by calculating the ratio of the light emitted by GFP over that emitted by the Rluc. To determine the half-time (t½) of Iso-induced BRET, data were represented as the difference between the Iso-induced BRET signals and the average of basal BRET signal (net agonist-promoted BRET signal). Curves were fitted using a non-linear regression and one phase exponential association fit equation (GraphPad Prism).
For agonist stimulations longer than 1 minute, cells were first treated with the ligand (agonist, antagonist, inverse agonist) and DeepBlueC™ coelenterazine added immediately before BRET readings in the modified TopCount.NXT™ apparatus. For these experiments, readings were taken directly in 96 well plates 72 hours post-transfection without detaching the cells.

Assay [3] concerns the target T1, β2-adrenergic receptor (β2AR). The experiment in a line: BRET2 receptor/G protein interaction assay: β2AR-Rluc (or β2AR-GFP10) with tagged G protein subunits in living HEK293T cells. The format is cell-based.
Protocol: Rluc-tagged receptors and G protein constructs were transiently co-transfected in HEK293T cells. […] For the experiment using α2AAR-Rluc (FIG. 4f), the G protein heterotrimer was complimented with the most specific Gαi2. Forty-eight hours post-transfection, cells were washed twice with PBS, detached with PBS-5 mM EDTA and resuspended in PBS-0.1% glucose at RT. Cells (50 μg of proteins per well) were then distributed in a 96-well microplate (white Optiplate, PerkinElmer) and incubated in the presence or absence of different ligands for 1 min except in the case of the kinetic studies where the times are indicated. DeepBlueC™ coelenterazine (PerkinElmer) was added at a final concentration of 5 μM, and readings (except for the kinetic studies; see below) were collected using a modified top-count apparatus (TopCount.NX™, Packard Bioscience) that allows the sequential integration of the signals detected in the 370-450 nm and 500-530 nm windows using filters with the appropriate band pass (Chroma). The BRET signal was determined by calculating the ratio of the light emitted by GFP10 (500-530 nm) over the light emitted by the Rluc (370-450 nm). The net BRET values were obtained by subtracting the BRET background signal detected when the Rluc-tagged construct was expressed alone from BRET signals detected in cells coexpressing both Rluc- and GFP10-tagged constructs. […]
Where [4] appears, read: untagged α2AAR, ligands 10 μM, FIG. 27A, 27C.

“Also recorded” adds a separate entry of the source. Like-named read-outs stand apart in the source and are kept apart here.

With `Nc1nc2c(ncn2[C@@H]2O[C@H](COP(=O)(O)OP(=O)(O)OP(=O)(O)O)[C@@H](O)[C@H]2O)c(=O)[nH]1` [GTP, Guanosine triphosphate], the “effect of GTP on basal and agonist-stimulated BRET, β2AR-Rluc / GFP-Gβ1 or GFP-Gγ2” value in assay [1] (high GTP concentrations, 90 min at 25° C., Iso 10 μM, FIG. 9) was “GTP sensitive”.

With `Nc1nc2c(ncn2[C@@H]2O[C@H](COP(=O)(O)OP(=O)(O)OP(O)(O)=S)[C@@H](O)[C@H]2O)c(=O)[nH]1` [GTPγS], the “effect on agonist-promoted BRET signal, β2AR-Rluc / GFP10-Gβ1 or GFP10-Gγ2” value in assay [1] (GTPγS 200 μM, 90 min at 25° C. pretreatment, Iso 10 μM) is recorded as “attenuated the agonist-promoted signal”. Moreover, in assay [1] (GTPγS 200 μM, 90 min at 25° C. pretreatment), the “effect on basal BRET in the absence of agonist, β2AR-Rluc / GFP10-Gβ1 or GFP10-Gγ2” value is on record as “reduced the basal BRET”.

Take `COC1(C2=NCCN2)COc2ccccc2O1` (stereo not shown) [RX821002]: at α2AAR (setting [4]), the “change in BRET, Gαi1-91Rluc / GFP10-Gγ2” value is on record as “no effect on the BRET signal” and the “change in BRET, Gαi1-122Rluc / GFP10-Gγ2” value is “significant decrease in the BRET signal”. In assay [2] (FIG. 25), the “effect of pretreatment on UK14,304-promoted BRET increase, α2AAR / G protein pairs” value is “completely blocked the UK14,304-promoted BRET increase”. For the same molecule, the “effect of preincubation on agonist-stimulated BRET response, Gαi1-Rluc / α2AAR-GFP10” value in assay [2] (agonist UK14304, FIG. 3E) was “completely blocked the agonist-stimulated response”. Besides, in assay [2] (ligands 10 μM, FIG. 3E), the “modulation of BRET, Gαi1-Rluc / α2AAR-GFP10” value is “unable to modulate the BRET signal”. In assay [2] (ligands 10 μM, FIG. 20, 25), the “change in BRET2, Gαi1-91Rluc / α2AAR-GFP2” value is reported as “little or no effect”; the “change in BRET2, Gαi1-122Rluc / α2AAR-GFP2” value was “promoted a decrease in the BRET”; the “change in BRET2, α2AAR-Rluc / GFP10-Gβ1” value is given as “little or no effect”; the “change in BRET2, α2AAR-Rluc / GFP10-Gγ2” value was “little or no effect”.

As to `Brc1c(NC2=NCCN2)ccc2nccnc12` [UK14,304], at α2AAR, the “change in BRET2, Gαi1-91Rluc / GFP10-Gγ2, measured concomitantly with BRET1 in the same cells” value is “decrease in BRET^2”; the “change in BRET, Gαi1-91Rluc / GFP10-Gγ2” value is “promoted a reduction of BRET; also recorded: decreased the BRET”; the “change in BRET, Gαi1-122Rluc / GFP10-Gγ2” value was “promoted a reduction of BRET; also recorded: decreased the BRET”. Besides, in assay [2], the “change in BRET1, Gαi1-91Rluc / α2AAR-Venus, measured concomitantly with BRET2 in the same cells” value is on record as “increase in the BRET”; the “change in BRET2, Gαi1-91Rluc / α2AAR-GFP2” value is “significantly increased the BRET”; the “change in BRET2, α2AAR-Rluc / GFP10-Gβ1” value is “significantly increased the BRET”; the “change in BRET2, α2AAR-Rluc / GFP10-Gγ2” value is reported as “significantly increased the BRET”. Moreover, in assay [2], the “loss (decrease) of BRET signal, α2AAR-Rluc / GFP10-Gγ2” value was 24%; the “real-time BRET1 change, Gαi1-91Rluc / α2AAR-Venus” value is recorded as “rapid increases in the BRET”; the “real-time BRET1 change, Rluc-Gγ2 / α2AAR-Venus” value was “rapid increases in the BRET”; the “real-time BRET1 change, α2AAR-Venus / Gαi1-122Rluc” value was “rapid decrease in BRET^1”. For the same molecule, the “time BRET levels reached following agonist stimulation remained constant, α2AAR-Venus pairs” value in assay [2] is reported as “at least 12 seconds”.

Take `Clc1cccc(Cl)c1N=C1NCCN1` [clonidine, Clonidine]: at α2AAR, the “change in BRET, Gαi1-91Rluc / GFP10-Gγ2” value is on record as “decreased the BRET” and the “change in BRET, Gαi1-122Rluc / GFP10-Gγ2” value was “decreased the BRET”. Also, in assay [2], the “change in BRET2, Gαi1-91Rluc / α2AAR-GFP2” value is listed as “partial increase in BRET”; the “change in BRET2, α2AAR-Rluc / GFP10-Gβ1” value is listed as “partial increase in BRET”; the “change in BRET2, α2AAR-Rluc / GFP10-Gγ2” value is reported as “partial increase in BRET”; the “modulation of BRET, Gαi1-Rluc / α2AAR-GFP10” value was “induced only a fraction of the full agonist modulation UK14304”.

`Cc1cccc([C@H](C)c2cnc[nH]2)c1C` [dexmedetomidine, Dexmedetomidine]: on α2AAR (setting [4]), the “change in BRET, Gαi1-91Rluc / GFP10-Gγ2” value is listed as “decreased the BRET” and the “change in BRET, Gαi1-122Rluc / GFP10-Gγ2” value was “decreased the BRET”. For the same molecule, in assay [2], the “change in BRET2, Gαi1-91Rluc / α2AAR-GFP2” value is “partial increase in BRET”; the “change in BRET2, Gαi1-122Rluc / α2AAR-GFP2” value is on record as “larger responses”; the “change in BRET2, α2AAR-Rluc / GFP10-Gβ1” value is recorded as “partial increase in BRET”; the “change in BRET2, α2AAR-Rluc / GFP10-Gγ2” value is recorded as “partial increase in BRET”. Besides, in assay [2], the “modulation of BRET, Gαi1-Rluc / α2AAR-GFP10” value is “induced only a fraction of the full agonist modulation UK14304”.

Turning to `CC(Cc1ccc(O)cc1)NCC(O)c1cc(O)cc(O)c1` (stereo not shown) [fenoterol], the “ligand-promoted BRET response, β2AR-Rluc / GFP10-Gβ1 or GFP10-Gγ2, compared with isoproterenol” value in assay [3] (Feno 10 μM, Iso 10 μM, FIG. 3C) was “promoted only a fraction of the response evoked by the full agonist isoproterenol”.

Regarding `COC(=O)[C@@H]1[C@H]2C[C@H]3c4[nH]c5ccccc5c4CCN3C[C@@H]2CC[C@@H]1O` [yohimbine, Yohimbine], at α2AAR (setting [4]), the “change in BRET, Gαi1-91Rluc / GFP10-Gγ2” value is “no effect on the BRET signal” and the “change in BRET, Gαi1-122Rluc / GFP10-Gγ2” value was “significant decrease in the BRET signal”. For the same molecule, in assay [2], the “change in BRET2, Gαi1-91Rluc / α2AAR-GFP2” value is “little or no effect”; the “change in BRET2, Gαi1-122Rluc / α2AAR-GFP2” value was “promoted a decrease in the BRET”; the “change in BRET2, α2AAR-Rluc / GFP10-Gβ1” value is given as “little or no effect”; the “change in BRET2, α2AAR-Rluc / GFP10-Gγ2” value was “little or no effect”. For the same molecule, the “modulation of BRET, Gαi1-Rluc / α2AAR-GFP10” value in assay [2] is recorded as “unable to modulate the BRET signal”.

On to “AVP: Vasopressin-selective agonist (V2R)”, for which the “modulation of BRET signal, β2AR-Rluc / GFP-Gγ2 or GFP-Gβ1, in cells also expressing Myc-V2R” value in assay [3] (10 μM AVP, specificity control, FIG. 7) is reported as “unable to modulate BRET signal”.

Regarding pertussis toxin, at α2AAR (pertussis toxin 16 h at 37° C., FIG. 21), the “effect of treatment on UK14,304-promoted BRET changes, Gαi1-91Rluc or Gαi1-122Rluc / GFP10-Gγ2” value was “abolished”. Further, the “effect of pre-treatment on agonist-promoted changes in BRET between α2AAR and G protein subunits” value is recorded as “blocked” in assay [2] and “greatly blunted agonist-promoted BRET changes” in assay [2] (listed as PTX).
